From ChEMBL document CHEMBL5233239, “Matrix metalloproteinase-9 (MMP-9) and its inhibitors in cancer: A minireview” (Eur J Med Chem, 2020)
Values belong to the compound of their own block, whether it stands above or below them.

What was measured:
[1] = molecular target: T1, 72 kDa type IV collagenase (Homo sapiens, UniProt P08253); test: Inhibition of human MMP2 incubated for 1 hrs followed by chromogenic substrate addition and measured after 30 mins by microplate photometer analysis
[2] = molecular target: T2, Matrix metalloproteinase-9 (Homo sapiens, UniProt P14780); test: Inhibition of human MMP9 incubated for 1 hrs followed by chromogenic substrate addition and measured after 30 mins by microplate photometer analysis
[3] = molecular target: T2, Matrix metalloproteinase-9; test: Inhibition of MMP-9 (unknown origin)
[4] = molecular target: T1, 72 kDa type IV collagenase
[5] = molecular target: T2, Matrix metalloproteinase-9; test: Inhibition of human MMP-9
[6] = molecular target: T1, 72 kDa type IV collagenase; test: Inhibition of human MMP-2
Neutrophil collagenase [7] = molecular target: T3, Neutrophil collagenase (Homo sapiens, UniProt P22894); test: Inhibition of MMP-8 (unknown origin)
Interstitial collagenase [8] = molecular target: T4, Interstitial collagenase (Homo sapiens, UniProt P03956); test: Inhibition of MMP-1 (unknown origin)
T4 sequence (P03956 whole entry): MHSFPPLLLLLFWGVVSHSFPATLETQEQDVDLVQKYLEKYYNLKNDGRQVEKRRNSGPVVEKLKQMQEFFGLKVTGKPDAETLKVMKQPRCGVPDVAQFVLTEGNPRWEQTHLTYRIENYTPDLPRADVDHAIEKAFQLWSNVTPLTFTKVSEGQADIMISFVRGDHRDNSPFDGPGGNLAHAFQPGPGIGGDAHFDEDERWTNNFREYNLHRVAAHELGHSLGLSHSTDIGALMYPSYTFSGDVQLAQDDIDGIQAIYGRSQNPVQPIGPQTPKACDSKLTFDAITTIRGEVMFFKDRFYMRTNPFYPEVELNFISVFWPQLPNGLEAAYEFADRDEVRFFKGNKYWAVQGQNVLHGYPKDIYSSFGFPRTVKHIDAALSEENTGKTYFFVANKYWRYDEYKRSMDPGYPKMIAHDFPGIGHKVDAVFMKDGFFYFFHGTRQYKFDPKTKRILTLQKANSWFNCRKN

Matrilysin [9] = molecular target: T5, Matrilysin (Homo sapiens, UniProt P09237); test: Inhibition of MMP-7 (unknown origin)
T5 sequence (P09237 whole entry): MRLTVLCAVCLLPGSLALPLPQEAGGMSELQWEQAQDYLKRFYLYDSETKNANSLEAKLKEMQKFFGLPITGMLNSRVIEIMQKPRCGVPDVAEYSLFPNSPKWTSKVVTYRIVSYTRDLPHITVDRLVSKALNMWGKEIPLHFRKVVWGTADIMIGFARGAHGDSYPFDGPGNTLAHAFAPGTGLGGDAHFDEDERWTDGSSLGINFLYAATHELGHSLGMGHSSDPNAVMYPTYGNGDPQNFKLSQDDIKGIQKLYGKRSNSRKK

[10] = molecular target: T1, 72 kDa type IV collagenase; test: Inhibition of recombinant human full length MMP2 using […] as substrate incubated for 20 to 30 mins by fluorescence microplate reader analysis
[11] = molecular target: T2, Matrix metalloproteinase-9; test: Inhibition of recombinant human MMP9 using […] as substrate incubated for 20 to 30 mins by fluorescence microplate reader analysis
Stromelysin-1 = Stromelysin-1 (Homo sapiens, UniProt P08254); test: Inhibition of recombinant human MMP3 expressed in Escherichia coli BL21 (DE3) using [3H]transferrin as substrate incubated for 3 hrs by scintillation counter analysis
Matrilysin [12] = molecular target: T5, Matrilysin; test: Inhibition of recombinant human MMP7 using […] as substrate incubated for 20 to 30 mins by fluorescence microplate reader analysis
Neutrophil collagenase [13] = molecular target: T3, Neutrophil collagenase; test: Inhibition of recombinant human MMP8 using […] as substrate incubated for 20 to 30 mins by fluorescence microplate reader analysis
Interstitial collagenase [14] = molecular target: T4, Interstitial collagenase; test: Inhibition of recombinant human MMP1 expressed in Escherichia coli BL21 (DE3) using Mca-Pro-Leu-Gly-Leu-Dpa-Ala-Arg-NH2 as substrate incubated for 20 to 30 mins by fluorescence assay
[15] = Cmax in mouse plasma at 200 mg/kg, po by HPLC analysis; format: ADME, organism-based; parameters: dose 200 mg/kg, route po
[16] = molecular target: T2, Matrix metalloproteinase-9; test: Inhibition of MMP-9 (unknown origin) using Ac-Pro-Leu-Gly-SCH(CH2 CH(CH3)2)CO-Leu-Gly-OCH2CH3 as substrate preincubated of 0.5 hrs followed by substrate addition and measured after 3 hrs by fluorescence analysis
[17] = molecular target: T2, Matrix metalloproteinase-9; test: Inhibition of MMP-9 (unknown origin) by fluorimetric assay
[18] = molecular target: T1, 72 kDa type IV collagenase; test: Inhibition of MMP-2 (unknown origin) by fluorimetric assay
Collagenase 3 = Collagenase 3 (Homo sapiens, UniProt P45452)
Description: Inhibition of MMP-13 (unknown origin)

[19] = molecular target: Disintegrin and metalloproteinase domain-containing protein 17 (Homo sapiens, UniProt P78536); test: Inhibition of TACE (unknown origin)
Chain of Disintegrin and metalloproteinase domain-containing protein 17 (P78536 whole entry, the tested form may be a part): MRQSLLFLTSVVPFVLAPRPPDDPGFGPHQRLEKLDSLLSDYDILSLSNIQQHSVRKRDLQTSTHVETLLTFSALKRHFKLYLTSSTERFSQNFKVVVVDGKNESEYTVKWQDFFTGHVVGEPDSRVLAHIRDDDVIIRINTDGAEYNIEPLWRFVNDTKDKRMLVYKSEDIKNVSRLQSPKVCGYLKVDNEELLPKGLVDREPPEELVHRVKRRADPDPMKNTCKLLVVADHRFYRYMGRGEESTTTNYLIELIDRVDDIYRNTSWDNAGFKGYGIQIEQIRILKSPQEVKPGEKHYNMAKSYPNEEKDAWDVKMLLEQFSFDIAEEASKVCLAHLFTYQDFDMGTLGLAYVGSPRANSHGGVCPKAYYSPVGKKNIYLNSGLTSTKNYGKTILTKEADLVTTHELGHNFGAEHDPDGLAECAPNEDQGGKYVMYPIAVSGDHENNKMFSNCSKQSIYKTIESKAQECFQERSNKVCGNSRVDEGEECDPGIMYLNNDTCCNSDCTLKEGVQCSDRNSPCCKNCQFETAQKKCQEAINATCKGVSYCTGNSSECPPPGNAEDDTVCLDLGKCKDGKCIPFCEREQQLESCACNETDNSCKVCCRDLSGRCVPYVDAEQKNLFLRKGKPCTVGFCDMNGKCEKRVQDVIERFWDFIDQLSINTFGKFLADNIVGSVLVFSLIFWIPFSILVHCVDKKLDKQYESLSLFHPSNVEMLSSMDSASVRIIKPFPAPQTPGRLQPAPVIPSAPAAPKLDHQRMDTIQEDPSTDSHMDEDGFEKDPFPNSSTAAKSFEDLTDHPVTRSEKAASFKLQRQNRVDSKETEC

T1 sequence (P08253 whole entry): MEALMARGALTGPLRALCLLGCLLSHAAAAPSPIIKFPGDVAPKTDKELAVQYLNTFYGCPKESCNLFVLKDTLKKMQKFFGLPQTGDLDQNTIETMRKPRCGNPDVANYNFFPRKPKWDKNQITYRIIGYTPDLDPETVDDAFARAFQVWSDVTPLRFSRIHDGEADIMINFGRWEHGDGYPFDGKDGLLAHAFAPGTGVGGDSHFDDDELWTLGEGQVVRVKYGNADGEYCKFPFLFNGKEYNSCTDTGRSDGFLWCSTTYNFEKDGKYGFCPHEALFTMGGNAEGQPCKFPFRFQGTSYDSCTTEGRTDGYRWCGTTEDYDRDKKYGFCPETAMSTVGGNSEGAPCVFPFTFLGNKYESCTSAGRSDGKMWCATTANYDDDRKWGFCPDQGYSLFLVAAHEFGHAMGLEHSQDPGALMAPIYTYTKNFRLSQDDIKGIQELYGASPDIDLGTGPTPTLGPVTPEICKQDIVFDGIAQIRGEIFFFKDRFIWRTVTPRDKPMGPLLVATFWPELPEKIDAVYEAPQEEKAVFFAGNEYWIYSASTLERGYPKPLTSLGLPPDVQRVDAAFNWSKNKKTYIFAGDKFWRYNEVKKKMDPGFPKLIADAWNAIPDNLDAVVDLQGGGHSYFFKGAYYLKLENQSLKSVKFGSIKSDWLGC
T2 sequence (P14780 whole entry): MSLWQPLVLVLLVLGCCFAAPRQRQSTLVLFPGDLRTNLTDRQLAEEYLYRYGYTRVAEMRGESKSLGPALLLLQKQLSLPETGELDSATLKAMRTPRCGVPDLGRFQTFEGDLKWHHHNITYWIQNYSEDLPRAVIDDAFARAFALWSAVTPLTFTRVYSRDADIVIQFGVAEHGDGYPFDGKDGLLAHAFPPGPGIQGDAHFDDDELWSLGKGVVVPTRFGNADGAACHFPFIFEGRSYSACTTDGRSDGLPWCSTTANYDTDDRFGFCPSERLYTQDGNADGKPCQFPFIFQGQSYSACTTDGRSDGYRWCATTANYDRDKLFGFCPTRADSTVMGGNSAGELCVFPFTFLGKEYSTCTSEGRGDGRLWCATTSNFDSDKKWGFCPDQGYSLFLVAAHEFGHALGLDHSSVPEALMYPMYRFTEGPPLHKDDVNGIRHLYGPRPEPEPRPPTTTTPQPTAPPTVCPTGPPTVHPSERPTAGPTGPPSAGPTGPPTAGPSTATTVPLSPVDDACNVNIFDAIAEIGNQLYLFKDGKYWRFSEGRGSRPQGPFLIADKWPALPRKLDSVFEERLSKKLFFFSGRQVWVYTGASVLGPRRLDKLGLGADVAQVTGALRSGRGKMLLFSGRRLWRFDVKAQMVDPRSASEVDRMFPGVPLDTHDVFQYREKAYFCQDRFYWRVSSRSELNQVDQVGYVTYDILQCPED
T3 sequence (P22894 whole entry): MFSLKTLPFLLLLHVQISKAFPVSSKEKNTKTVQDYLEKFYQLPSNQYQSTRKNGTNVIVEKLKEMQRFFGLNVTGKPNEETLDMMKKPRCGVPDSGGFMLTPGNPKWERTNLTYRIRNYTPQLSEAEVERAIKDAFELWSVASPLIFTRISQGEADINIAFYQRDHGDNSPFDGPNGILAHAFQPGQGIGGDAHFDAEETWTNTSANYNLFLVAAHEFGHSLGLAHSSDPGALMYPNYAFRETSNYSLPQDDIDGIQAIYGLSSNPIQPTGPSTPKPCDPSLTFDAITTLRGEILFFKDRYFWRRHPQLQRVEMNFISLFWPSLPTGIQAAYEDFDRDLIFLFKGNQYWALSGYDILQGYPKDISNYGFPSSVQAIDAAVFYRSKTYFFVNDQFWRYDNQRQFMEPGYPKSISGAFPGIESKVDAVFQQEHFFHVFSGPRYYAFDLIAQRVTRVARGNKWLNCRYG
Chain of Stromelysin-1 (P08254 whole entry): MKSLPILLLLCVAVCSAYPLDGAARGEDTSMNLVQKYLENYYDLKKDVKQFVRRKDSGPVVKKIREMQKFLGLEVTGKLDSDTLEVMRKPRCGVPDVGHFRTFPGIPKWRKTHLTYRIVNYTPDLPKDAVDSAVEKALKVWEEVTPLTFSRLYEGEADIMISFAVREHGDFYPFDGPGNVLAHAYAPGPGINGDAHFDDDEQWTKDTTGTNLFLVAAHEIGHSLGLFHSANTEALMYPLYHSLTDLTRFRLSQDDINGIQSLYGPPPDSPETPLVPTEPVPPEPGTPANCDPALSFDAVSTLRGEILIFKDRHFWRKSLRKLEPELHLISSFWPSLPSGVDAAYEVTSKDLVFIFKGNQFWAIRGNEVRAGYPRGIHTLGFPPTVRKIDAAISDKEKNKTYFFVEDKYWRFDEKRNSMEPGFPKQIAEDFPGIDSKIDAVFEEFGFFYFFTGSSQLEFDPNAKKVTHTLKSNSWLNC

SMILES: O=C(O)CC[C@@H](NC(=O)Cc1ccc(Br)cc1)C(=O)NCc1ccc([N+](=O)[O-])cc1
IC50 [1]: 6400 nM
IC50 [2]: 4830 nM

SMILES: CN(C)c1ccc(-c2cn(-c3ccc(S(=O)(=O)NC(Cc4ccccc4)C(=O)NO)cc3)nn2)cc1 (configuration not stated)
IC50 [3]: 1.06 nM
IC50 [4]: 0.32 nM

SMILES: CCCN(C(CSC)C(=O)NO)S(=O)(=O)c1ccc(OC)cc1 (configuration not stated)
IC50 [5]: 0.2 nM
IC50 [6]: 0.7 nM

SMILES: COc1ccc(S(=O)(=O)N2CCCC(C)(C)CC2C(=O)NO)cc1 (configuration not stated)
IC50 [10]: 1.4 nM
IC50 [11]: 0.5 nM
IC50 (Stromelysin-1): 3.3 nM
IC50 (Matrilysin [12]): 18 nM
IC50 (Neutrophil collagenase [13]): 1.9 nM
IC50 (Interstitial collagenase [14]): 2.4 nM

SMILES: Cc1ccc(C#Cc2ccc(S(=O)(=O)N[C@H](C(=O)O)C(C)C)s2)cc1
Cmax [15]: 284 µM
IC50 [16]: 14 nM

SMILES: O=CN(O)C(CS(=O)(=O)c1ccc(Oc2ccc(OC(F)(F)F)cc2)cc1)[C@@H](O)CO (some centres not stated)
IC50 [17]: 0.092 nM
IC50 [18]: 0.36 nM

SMILES: CNC(=O)[C@H](Cc1ccccc1)NC(=O)[C@H](CC(C)C)[C@H](CSc1cccs1)C(=O)NO [BATIMASTAT]
IC50 [3]: 1 nM

Second part, the compound after the results:

IC50 [3]: 6.8 nM
IC50 (Neutrophil collagenase [7]): 6.4 nM
IC50 (Interstitial collagenase [8]): 22.2 nM
IC50 (Matrilysin [9]): > 10000 nM
SMILES: COc1ccc(S(=O)(=O)N2CN(Cc3ccccc3)C(=O)CC2C(=O)NO)cc1 (configuration not stated)

IC50 [3]: 1 nM
IC50 (Collagenase 3): 2 nM
SMILES: COc1ccc(S(=O)(=O)N(Cc2ccccn2)c2c(C)cc(-c3cccc(C(F)(F)F)c3)cc2C(=O)NO)cc1

IC50 [3]: 2 nM
IC50 (Collagenase 3): 39 nM
IC50 (Interstitial collagenase [8]): 74 nM
IC50 [19]: 633 nM
SMILES: COc1ccc(S(=O)(=O)N(c2c(C)cc(-c3cccc(C(F)(F)F)c3)cc2C(=O)NO)N(C)C)cc1
